# According to US10829778B2, “Plants having increased tolerance to herbicides” (BASF SE, priority 2013, dated 2020):
# Assays:
# Avena HPPD = assay: HPPD activity assay, wildtype enzyme; type: biochemical, Avena sativa; details: Table 12, normalized to Arabidopsis HPPD
# Procedure: (§1) HPPD produces homogentisic acid and CO2 from 4-hydroxyphenylpyruvate (4-HPP) and O2. The activity assay for HPPD is based on the analysis of homogentisic acid by reversed phase HPLC.
# (§2) The assay mixture can contain 150 mM potassium phosphate buffer pH 7.0, 50 mM L-ascorbic acid, 100 μM Catalase (Sigma-Aldrich), 1 μM FeSO4 and 0.2 units of purified HPPD enzyme in a total volume of 505 μl. 1 unit is defined as the amount of enzyme that is required to produce 1 nmol of HGA per minute at 20° C.
# (§3) After a preincubation of 30 min the reaction is started by adding 4-HPP to a final concentration of 0.05 mM. The reaction is allowed to proceed for 45 min at room temperature. The reaction is stopped by the addition of 50 μl of 4.5 M phosphoric acid. The sample is filtered using a […] pore size PVDF filtration device.
# (§4) 5 μl of the cleared sample is analyzed on an UPLC HSS T3 column (particle size 1.8 μm, dimensions 2.1×50 mm; Waters) by isocratic elution using 90% 20 mM NaH2PO4 pH 2.2, 10% methanol (v/v).
# (§5) HGA is detected electrochemically at 750 mV (mode: DC; polarity: positive) and quantified by integrating peak areas (Empower software; Waters).
# (§6) Inhibitors are dissolved in DMSO (dimethylsulfoxide) to a concentration of 0.5 mM. From this stock solution serial five-fold dilutions are prepared in DMSO, which are used in the assay. […] IC50 values are calculated using non-linear regression. […]
# [1] = system: transgenic Arabidopsis plants expressing AtHPPD M335H, P336A, E363Q; assay: Greenhouse herbicide spray test, transgenic Arabidopsis plants (T2); type: in vivo, Arabidopsis thaliana; details: two weeks after treatment
# Description: (§7) For post emergence treatment, the test plants are first grown to a height of 3 to 15 cm, depending on the plant habit, and only then treated with the herbicides. For this purpose, the test plants are either sown directly and grown in the same containers, or they are first grown separately and transplanted into the test containers a few days prior to treatment.
# (§8) Additionally, T1 and T2 transgenic Arabidopsis plants can be tested for improved tolerance to N-heterocyclyl-arylcarboxamides in a greenhouse studies. Herbicide injury scoring is done 2-3 weeks after treatment and is rated on a scale of 0 to 100%, 0% being no injury and 100% being complete death.
# [2] = system: transgenic Arabidopsis plants expressing HvHPPD L320H; assay: as above; type: in vivo, Arabidopsis thaliana; details: for Injury evaluation: HvHPPD L320H, two weeks after treatment
# Description: as §7, §8
# [3] = molecular target: T1, Arabidopsis HPPD (SEQ ID NO:53) (Arabidopsis thaliana, UniProt P93836); assay: HPPD activity assay (HGA by HPLC), wildtype enzyme; type: biochemical
# T1 construct: His6 (N); made in house; host or cells: E. coli BL21 (DE3)
# T1 sequence (P93836 1-445): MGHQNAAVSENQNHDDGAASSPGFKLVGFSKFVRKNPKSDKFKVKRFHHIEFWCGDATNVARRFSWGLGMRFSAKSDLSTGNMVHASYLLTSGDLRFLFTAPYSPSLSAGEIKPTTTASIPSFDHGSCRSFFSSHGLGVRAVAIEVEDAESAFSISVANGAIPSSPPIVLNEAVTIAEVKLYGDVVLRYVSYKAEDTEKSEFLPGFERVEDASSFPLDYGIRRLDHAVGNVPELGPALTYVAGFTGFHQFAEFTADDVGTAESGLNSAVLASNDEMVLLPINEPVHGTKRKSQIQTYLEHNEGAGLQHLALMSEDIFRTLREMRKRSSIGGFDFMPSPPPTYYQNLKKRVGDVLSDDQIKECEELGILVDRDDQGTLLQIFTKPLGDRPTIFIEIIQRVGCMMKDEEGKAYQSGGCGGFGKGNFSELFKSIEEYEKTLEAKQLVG
# Procedure: as §1, §2, §3, §4, §5
# (§9) Inhibitors are dissolved in DMSO (dimethylsulfoxide) to a concentration of 0.5 mM. From this stock solution serial five-fold dilutions are prepared in DMSO, which are used in the assay. The respective inhibitor solution accounts for 1% of the assay volume. […] Activities are normalized by setting the uninhibited enzyme activity to 100%. IC50 values are calculated using non-linear regression.
# (§10) Using methods which are described in the above examples or well known in the art, purified, recombinant wildtype HPPD enzymes are characterized with respect to their kinetic properties and sensitivity towards HPPD inhibiting herbicides. Apparent michaelis constants (Km) and maximal reaction velocities (Vmax) are calculated by non-linear regression with the software GraphPad Prism 5 (GraphPad Software, La Jolla, USA) using a substrate inhibition model. […] Weighted means (by standard error) of Km and IC50 values are calculated from at least three independent experiments.
# (§11) Field performance of the HPPD enzyme, which is used as a herbicide tolerance trait may depend not only on its lack of sensitivity towards HPPD inhibiting herbicides but also on its activity. To assess the potential performance of a herbicide tolerance trait a tolerance index (TI) is calculated using the following formula: […]
# (§12) Easy comparison and ranking of each trait is enabled by normalizing tolerance indexes on Arabidopsis wild-type HPPD.
# [4] = molecular target: T2, Hordeum HPPD (SEQ ID NO:2) (Hordeum vulgare, UniProt O48604, A164G/R146V/R147D/R148G); assay: HPPD activity assay (HGA by HPLC), wildtype enzyme; type: biochemical
# T2 construct: subcloned into a modified pET24D (Novagen) expression vector resulting in N-terminally His-tagged expression constructs; His tag (N); made in house; host or cells: E. coli BL21 (DE3)
# Procedure: as §1, §2, §3, §4, §5, §9, §10, §11, §12
# Synechoccus HPPD = assay: HPPD activity assay, wildtype enzyme; type: biochemical, Synechococcus; details: Table 12, normalized to Arabidopsis HPPD
# Procedure: as §1, §2, §3, §4, §5, §6
# T2 sequence (O48604 whole entry R146V/R147D/R148G/A164G): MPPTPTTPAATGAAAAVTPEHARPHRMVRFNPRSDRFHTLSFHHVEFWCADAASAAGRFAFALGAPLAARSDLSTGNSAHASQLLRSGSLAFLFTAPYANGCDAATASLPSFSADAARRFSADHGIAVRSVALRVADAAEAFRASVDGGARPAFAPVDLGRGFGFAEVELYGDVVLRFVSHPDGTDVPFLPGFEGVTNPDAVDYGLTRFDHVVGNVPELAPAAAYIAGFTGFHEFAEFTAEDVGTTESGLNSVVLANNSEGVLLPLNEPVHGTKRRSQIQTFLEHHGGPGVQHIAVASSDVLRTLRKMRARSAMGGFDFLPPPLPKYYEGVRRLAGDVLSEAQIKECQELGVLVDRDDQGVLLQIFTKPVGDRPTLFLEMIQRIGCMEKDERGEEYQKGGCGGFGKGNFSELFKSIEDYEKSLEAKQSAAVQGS
compound,measurement,setting,value
"Cc1nonc1NC(=O)c1ccc(S(C)(=O)=O)c(S(C)(=O)=O)c1C [Inhibitor 1, 2-methyl-N-(4-methyl-1,2,5-oxadiazol-3-yl)-3,4-bis(methylsulfonyl)benzamide]",Normalized tolerance index TI Inhibitor 1,Avena HPPD,1.3
same,Injury evaluation,[1]; 1.56 g/ha,3%
same,Injury evaluation,[1]; 3.125 g/ha,13%
same,Injury evaluation,[1]; 6.25 g/ha,42%
same,Injury evaluation,[1]; 12.5 g/ha,42%
same,increased tolerance versus wild-type plants,"[2]; HvHPPD L320H plants, dose of 3.125 g/ha",~20 fold
same,Injury evaluation,[2]; 1.56 g/ha,0%
same,Injury evaluation,[2]; 3.125 g/ha,5%
same,Injury evaluation,[2]; 6.25 g/ha,20%
same,Injury evaluation,[2]; 12.5 g/ha,27%
same,Ki,[3],1.6 nM
same,Normalized tolerance index TI Inhibitor 1,"[3]; Table 12, normalized to Arabidopsis HPPD SEQ ID NO:53 (reference)",1
same,Normalized tolerance index TI Inhibitor 1,"[3]; Table 15, Arabidopsis HPPD Wildtype (reference)",1
same,TI (tolerance index),"[3]; not normalized, Table 11, Arabidopsis enzyme",1.6E−3
same,Ki,[4],5.6 nM
same,Normalized tolerance index TI Inhibitor 1,"[4]; Table 12, normalized to Arabidopsis HPPD, Hordeum",1.5
same,Normalized tolerance index TI Inhibitor 1,"[4]; Table 16, Hordeum HPPD Wildtype (reference)",1
same,TI (tolerance index),"[4]; not normalized, Table 11, Hordeum enzyme",2.5E−3
same,Normalized tolerance index TI Inhibitor 1,Synechoccus HPPD,69.9
